The values below come from ChEMBL document CHEMBL4765275, “Discovery of novel tertiary amide derivatives as NEDDylation pathway activators to inhibit the tumor progression in vitro and in vivo” (Eur J Med Chem, 2020).

The source made the active and inactive calls. The calls are words filed in the database; no cut-off is given here.

The subject of assay [1] is MGC-803. Put plainly: Cell cycle arrest in human MGC-803 cells assessed as accumulation at G2 phase at 150 nmol/L measured after 48 hrs by propidium iodide staining based flow cytometry (reference value: 24.91%). It counts as functional.
The subject of assay [2] is MGC-803. Put plainly: Cell cycle arrest in human MGC-803 cells assessed as accumulation at G1 phase at 150 nmol/L measured after 48 hrs by propidium iodide staining based flow cytometry (reference value: 40.61%). It counts as functional.
Assay [3] relates to MGC-803. Kind of assay: Induction of apoptosis in human MGC-803 cells assessed as late apoptotic cells at 75 nmol/L measured after 48 hrs by Annexin V-FITC/propidium iodide staining based flow cytometry (reference value: 5.6%). It counts as functional.
Assay [4] deals with MGC-803. Put plainly: Induction of apoptosis in human MGC-803 cells assessed as increase in cleaved PARP expression at 50 to 150 nmol/L measured after 48 hrs by Western blot analysis. Type of assay: functional, cell-based. As to conditions: dose 50-150 nmol/L.
The subject of assay [5] is MGC-803. Put plainly: Induction of apoptosis in human MGC-803 cells assessed as viable cells at 50 nmol/L measured after 48 hrs by Annexin V-FITC/propidium iodide staining based flow cytometry (reference value: 91.7%). It counts as functional. As to conditions: read-out: Activity.

Turning to `COc1ccc(CN(C(=O)Cc2cccs2)c2cc(OC)c(OC)c(OC)c2)cc1`, the Activity in assay [1] was determined as 52.97%; in assay [2], 13.31%; in assay [3] it was 11%. Besides, in assay [4], the outcome was Active. Further, the viability at 0.05 µM in assay [5] was 87.7%.
